Measurements taken from patent US9290453B2 (Merck Sharp & Dohme Corp., priority 2010, dated 2016).
Where a name gives a salt, the structure may show the parent alone.

Each compound was assayed against T1, hCRTH2 (Homo sapiens, UniProt Q9Y5Y4) (assay: Radioligand Binding Assay A ([3H]PGD2 filtration binding, HEK-hCRTH2 membranes)). Conditions: Table A, rated A-D.
T1 construct: expressed in transfected cells; host or cells: HEK (human embryonic kidney) cells expressing hCRTH2
T1 sequence (Q9Y5Y4 1-395): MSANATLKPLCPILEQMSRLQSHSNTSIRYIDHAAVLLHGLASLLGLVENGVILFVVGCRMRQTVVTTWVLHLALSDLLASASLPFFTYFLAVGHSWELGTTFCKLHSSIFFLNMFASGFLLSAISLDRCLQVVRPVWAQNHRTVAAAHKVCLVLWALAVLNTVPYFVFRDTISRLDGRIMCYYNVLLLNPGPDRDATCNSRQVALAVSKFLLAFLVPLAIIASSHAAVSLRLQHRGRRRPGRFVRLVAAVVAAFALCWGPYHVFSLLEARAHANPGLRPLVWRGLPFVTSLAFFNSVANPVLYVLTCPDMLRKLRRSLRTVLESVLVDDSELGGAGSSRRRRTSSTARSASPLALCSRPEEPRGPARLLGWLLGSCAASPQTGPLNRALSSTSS
Description: Radioligand binding assays were performed at room temperature in 50 mM Tris-HCl pH 7.4, 1 mM EDTA containing 2 mM MnCl2 and 3.0 nM [^3H]PGD2 (New England Nuclear, Boston, Mass.) (171 Ci mmol^−1), in a final volume of 0.2 ml. Competing ligands were diluted in dimethylsulfoxide (Me2SO) that was kept constant at 1% (v/v) of the final incubation volume. The reaction was initiated by the addition of 8-20 μg of membrane protein prepared from a human embryonic kidney (HEK)-hCRTH2 cell line. Total and non-specific binding were determined in the absence and the presence of 10 μM PGD2, respectively. Under these conditions, specific binding (total minus non-specific) of the radioligand to the receptor reached equilibrium within 50 min and was stable up to 180 min. The reaction was routinely conducted for 60 min at room temperature and terminated by rapid filtration through prewetted (0.3% polyethyleneimine) 96-well printed Filtermate™ (Wallac) using a Tomtec® harvester (Hamden, Conn.). After washing with cold buffer, the filter was dried for 2 minutes in microwave, and Meltilex Scintillator sheet (Wallac) was melted on for 2 min. The radioactivity was measured with Betaplate model 1205 (Wallac).

Ki [nM] | Structure (SMILES)
2.1 to 20 | O=C(O)CCCCc1cc2cc(C(=O)NCc3ccc(OC(F)(F)F)cc3)ccc2nc1-c1ccccc1 [Compound 1, 5-(2-phenyl-6-(4-(trifluoromethoxy)benzylcarbamoyl)quinolin-3-yl)pentanoic acid trifluoroacetate]
2.1 to 20 | O=C(O)CCCCc1cc2cc(C(=O)NCCCN3CCCC3=O)ccc2nc1-c1ccccc1 [Compound 1AA, 6-[[[3-(2-oxo-1-pyrrolidinyl)propyl]amino]carbonyl]-2-phenyl-3-quinolinepentanoic acid]
2.1 to 20 | O=C(O)CCCCc1cc2cc(C(=O)Nc3cc4ccccc4[nH]3)ccc2nc1-c1ccccc1 [Compound 1AB, 6-[(1H-indol-2-ylamino)carbonyl]-2-phenyl-3-quinolinepentanoic acid]
2.1 to 20 | CCCCCCCCCNC(=O)c1ccc2nc(-c3ccccc3)c(CCCCC(=O)O)cc2c1 [Compound 1AC, 6-[(nonylamino)carbonyl]-2-phenyl-3-quinolinepentanoic acid]
2.1 to 20 | C[C@@H](NC(=O)c1ccc2nc(-c3ccccc3)c(CCCCC(=O)O)cc2c1)c1ccc(Cl)cc1 [Compound 1AD, 6-[[[1(R)-(4-chlorophenyl)ethyl]amino]carbonyl]-2-phenyl-3-quinolinepentanoic acid]
2.1 to 20 | C[C@H](NC(=O)c1ccc2nc(-c3ccccc3)c(CCCCC(=O)O)cc2c1)c1ccc(Cl)cc1 [Compound 1AE, 6-[[[1(S)-(4-chlorophenyl)ethyl]amino]carbonyl]-2-phenyl-3-quinolinepentanoic acid]
2.1 to 20 | O=C(O)CCCCc1cc2cc(C(=O)N[C@H](c3ccc(Cl)cc3)C(F)(F)F)ccc2nc1-c1ccccc1 [Compound 1AF, 6-[[[1(R)-(4-chlorophenyl)-2,2,2-trifluoroethyl]amino]carbonyl]-2-phenyl-3-quinolinepentanoic acid]
2.1 to 20 | O=C(O)CCCCc1cc2cc(C(=O)NCc3cccc(Cl)c3)ccc2nc1-c1ccccc1 [Compound 1D, 6-[[[(3-chlorophenyl)methyl]amino]carbonyl]-2-phenyl-3-quinolinepentanoic acid]
2.1 to 20 | Cc1ccc(CNC(=O)c2ccc3nc(-c4ccccc4)c(CCCCC(=O)O)cc3c2)cc1 [Compound 1E, 6-[[[(4-methylphenyl)methyl]amino]carbonyl]-2-phenyl-3-quinolinepentanoic acid]
2.1 to 20 | O=C(O)CCCCc1cc2cc(C(=O)NCc3ccc(C(F)(F)F)cc3)ccc2nc1-c1ccccc1 [Compound 1F, 2-phenyl-6-[[[[4-(trifluoromethyl)phenyl]methyl]amino]carbonyl]-3-quinolinepentanoic acid]
2.1 to 20 | O=C(O)CCCCc1cc2cc(C(=O)N[C@@H](c3ccccc3)C(F)(F)F)ccc2nc1-c1ccccc1 [Compound 1G, 2-phenyl-6-[[(2,2,2-trifluoro-1(S)-phenylethyl)amino]carbonyl]-3-quinolinepentanoic acid]
2.1 to 20 | O=C(O)CCCCc1cc2cc(C(=O)N[C@H](c3ccccc3)C(F)(F)F)ccc2nc1-c1ccccc1 [Compound 1H, 2-phenyl-6-[[(2,2,2-trifluoro-1(R)-phenylethyl)amino]carbonyl]-3-quinolinepentanoic acid]
2.1 to 20 | O=C(O)CCCCc1cc2cc(C(=O)N3CC[C@H](c4ccccc4)C3)ccc2nc1-c1ccccc1 [Compound 1J, 2-phenyl-6-[(3(R)-phenyl-1-pyrrolidinyl)carbonyl]-3-quinolinepentanoic acid]
2.1 to 20 | O=C(O)CCCCc1cc2cc(C(=O)N3CCC[C@@H](c4ccccc4)C3)ccc2nc1-c1ccccc1 [Compound 1K, 2-phenyl-6-[(3(S)-phenyl-1-piperidinyl)carbonyl]-3-quinolinepentanoic acid]
2.1 to 20 | O=C(O)CCCCc1cc2cc(C(=O)N3CCC[C@H](c4ccccc4)C3)ccc2nc1-c1ccccc1 [Compound 1L, 2-phenyl-6-[(3(R)-phenyl-1-piperidinyl)carbonyl]-3-quinolinepentanoic acid]
2.1 to 20 | O=C(O)CCCCc1cc2cc(C(=O)N[C@@H]3CCc4ccccc43)ccc2nc1-c1ccccc1 [Compound 1M, 6-[[(2,3-dihydro-1H-inden-1(R)-yl)amino]carbonyl]-2-phenyl-3-quinolinepentanoic acid]
2.1 to 20 | O=C(O)CCCCc1cc2cc(C(=O)N[C@H]3CCc4ccccc43)ccc2nc1-c1ccccc1 [Compound 1N, 6-[[(2,3-dihydro-1H-inden-1(S)-yl)amino]carbonyl]-2-phenyl-3-quinolinepentanoic acid]

Ki [nM] | Structure (SMILES)
2.1 to 20 | O=C(O)CCCCc1cc2cc(C(=O)N[C@H]3CCCc4ccccc43)ccc2nc1-c1ccccc1 [Compound 1P, 2-phenyl-6-[[(1,2,3,4-tetrahydro-1(S)-naphthalenyl)amino]carbonyl]-3-quinolinepentanoic acid]
2.1 to 20 | O=C(O)CCCCc1cc2cc(C(=O)NC3Cc4ccccc4C3)ccc2nc1-c1ccccc1 [Compound 1Q, 6-[[(2,3-dihydro-1H-inden-2-yl)amino]carbonyl]-2-phenyl-3-quinolinepentanoic acid]
0.1 to 2 | O=C(O)CCCCc1cc2cc(C(=O)N3CCC(c4ccccc4)CC3)ccc2nc1-c1ccccc1 [Compound 1R, 2-phenyl-6-[(4-phenyl-1-piperidinyl)carbonyl]-3-quinolinepentanoic acid]
2.1 to 20 | C[C@@H](NC(=O)c1ccc2nc(-c3ccccc3)c(CCCCC(=O)O)cc2c1)c1ccccc1 [Compound 1S, 2-phenyl-6-[[(l(R)-phenylethyl)amino]carbonyl]-3-quinolinepentanoic acid]
2.1 to 20 | C[C@H](NC(=O)c1ccc2nc(-c3ccccc3)c(CCCCC(=O)O)cc2c1)c1ccccc1 [Compound 1T, 2-phenyl-6-[[(l(S)-phenylethyl)amino]carbonyl]-3-quinolinepentanoic acid]
2.1 to 20 | CN(Cc1ccccc1)C(=O)c1ccc2nc(-c3ccccc3)c(CCCCC(=O)O)cc2c1 [Compound 1U, 6-[[methyl(phenylmethyl)amino]carbonyl]-2-phenyl-3-quinolinepentanoic acid]
2.1 to 20 | O=C(O)CCCCc1cc2cc(C(=O)NCc3ccc(C(F)(F)F)nc3)ccc2nc1-c1ccccc1 [Compound 1V, 2-phenyl-6-[[[[6-(trifluoromethyl)-3-pyridinyl]methyl]amino]carbonyl]-3-quinolinepentanoic acid]
20.1 to 200 | CC(NC(=O)c1ccc2nc(-c3ccccc3)c(CCCCC(=O)O)cc2c1)c1ccncc1 (stereo not shown) [Compound 1W, 2-phenyl-6-[[[1-(4-pyridinyl)ethyl]amino]carbonyl]-3-quinolinepentanoic acid]
20.1 to 200 | O=C(O)CCCCc1cc2cc(C(=O)NCc3cccnc3)ccc2nc1-c1ccccc1 [Compound 1X, 2-phenyl-6-[[(3-pyridinylmethyl)amino]carbonyl]-3-quinolinepentanoic acid]
20.1 to 200 | O=C(O)CCCCc1cc2cc(C(=O)NCc3ccncc3)ccc2nc1-c1ccccc1 [Compound 1Y, 2-phenyl-6-[[(4-pyridinylmethyl)amino]carbonyl]-3-quinolinepentanoic acid]
201 to 700 | O=C(O)CCCCc1cc2cc(C(=O)NCCCN3CCCC3)ccc2nc1-c1ccccc1 [Compound 1Z, 2-phenyl-6-[[[3-(1-pyrrolidinyl)propyl]amino]carbonyl]-3-quinolinepentanoic acid]
2.1 to 20 | O=C(O)CCCCc1cc2cc(C(=O)N3CC[C@@H](c4ccccc4)C3)ccc2nc1-c1ccccc1 [Compound 1i, 2-phenyl-6-[(3(S)-phenyl-1-pyrrolidinyl)carbonyl]-3-quinolinepentanoic acid]
2.1 to 20 | O=C(O)CCCCc1cc2cc(C(=O)N[C@@H]3CCCc4ccccc43)ccc2nc1-c1ccccc1 [Compound 1o, 2-phenyl-6-[[(1,2,3,4-tetrahydro-1(R)-naphthalenyl)amino]carbonyl]-3-quinolinepentanoic acid]
2.1 to 20 | Cc1cccc(CNC(=O)c2ccc3nc(-c4ccccc4)c(CCCCC(=O)O)cc3c2)c1 [Compound 2A, 6-[[[(3-methylphenyl)methyl]amino]carbonyl]-2-phenyl-3-quinolinepentanoic acid]
2.1 to 20 | O=C(O)CCCCc1cc2cc(C(=O)NCc3ccc(Cl)cc3)ccc2nc1-c1ccccc1 [Compound 2B, 6-[[[(4-chlorophenyl)methyl]amino]carbonyl]-2-phenyl-3-quinolinepentanoic acid]
2.1 to 20 | O=C(O)CCCCc1cc2cc(C(=O)NCc3ccc(F)cc3)ccc2nc1-c1ccccc1 [Compound 2C, 6-[[[(4-fluorophenyl)methyl]amino]carbonyl]-2-phenyl-3-quinolinepentanoic acid]
0.1 to 2 | O=C(O)CCCCc1cc2cc(C(=O)OCc3ccccc3)ccc2nc1-c1ccccc1 [Compound 2D, 2-phenyl-6-[(phenylmethoxy)carbonyl]-3-quinolinepentanoic acid]

Same assay, conditions: values in text

Ki [nM] | Structure (SMILES)
3.5 | C[C@@H](NC(=O)c1ccc2nc(-c3ccccc3)c(CCCCC(=O)O)cc2c1)c1ccc(Cl)cc1 [Compound 1AD, 6-[[[1(R)-(4-chlorophenyl)ethyl]amino]carbonyl]-2-phenyl-3-quinolinepentanoic acid]
4.4 | Cc1ccc(CNC(=O)c2ccc3nc(-c4ccccc4)c(CCCCC(=O)O)cc3c2)cc1 [Compound 1E, 6-[[[(4-methylphenyl)methyl]amino]carbonyl]-2-phenyl-3-quinolinepentanoic acid]
3.8 | O=C(O)CCCCc1cc2cc(C(=O)N[C@@H]3CCc4ccccc43)ccc2nc1-c1ccccc1 [Compound 1M, 6-[[(2,3-dihydro-1H-inden-1(R)-yl)amino]carbonyl]-2-phenyl-3-quinolinepentanoic acid]
1.8 | O=C(O)CCCCc1cc2cc(C(=O)N3CCC(c4ccccc4)CC3)ccc2nc1-c1ccccc1 [Compound 1R, 2-phenyl-6-[(4-phenyl-1-piperidinyl)carbonyl]-3-quinolinepentanoic acid]
28.9 | O=C(O)CCCCc1cc2cc(C(=O)NCc3cccnc3)ccc2nc1-c1ccccc1 [Compound 1X, 2-phenyl-6-[[(3-pyridinylmethyl)amino]carbonyl]-3-quinolinepentanoic acid]
570 | O=C(O)CCCCc1cc2cc(C(=O)NCCCN3CCCC3)ccc2nc1-c1ccccc1 [Compound 1Z, 2-phenyl-6-[[[3-(1-pyrrolidinyl)propyl]amino]carbonyl]-3-quinolinepentanoic acid]
